Results reported in patent US6362369B1, “Phthalic acid diamide derivatives fluorine-containing aniline compounds as starting material, agricultural and horticultural insecticides, and a method for application of the insecticides” (Nihon Nohyaku Co., Ltd., priority 1997, dated 2002).

Tests used:
Type in all cases: in vivo
[1] = tested on: rice leafroller (Cnaphalocrocis medinalis); assay: Insecticidal effect on rice leafroller (Test Example 3); details: 500 ppm, 25° C., humidity 70%; for Insecticidal effect (Test Example 3), judged from mortality / Insecticidal effect on rice leafroller (Test Example 3), judged grade: rice lamina dip; for Insecticidal effect (Test Example 3), judged from mortality: 4 days after inoculation; for Insecticidal effect, Test Example 3: rice lamina immersed; for Insecticidal effect, Test Example 3 / Insecticidal effect on rice leafroller (Test Example 3), judged grade: four days after inoculation; for Insecticidal effect on rice leafroller (Test Example 3), judged grade: third-instar larvae
Summary of the method: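 Groups of 10 third-instar larvae, in triplicate, are placed on air-dried lamina resting on wet filter paper. Incubation runs four days at 25° C with 70% humidity before survivors and dead are tallied.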

[2] = tested on: diamondback moth (Plutella xylostella); assay: Insecticidal effect on diamondback moth (Test Example 1); details: for Insecticidal effect (Test Example 1), judged from mortality / Insecticidal effect, Test Example 1: diamondback moth; for Insecticidal effect (Test Example 1), judged from mortality: judged by the criterion of Test Example 1; for Insecticidal effect on diamondback moth (Test Example 1), judged grade: mortality judged according to the criterion shown in Test Example 1
Summary of the method: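 Read-out was mortality from hatched-insect counts taken 6 days after the egg-bearing cabbage seedling was immersed, graded by set criteria. Seedlings were air-dried and kept at 25° C after treatment. Groups of 10 insects, in triplicate.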

[3] = tested on: common cutworm (Spodoptera Litura); assay: Insecticidal effect on common cutworm (Test Example 2); details: 500 ppm, 25° C.; for Insecticidal effect (Test Example 2), judged from mortality / Insecticidal effect on common cutworm (Test Example 2), judged grade: cabbage leaf dip; for Insecticidal effect (Test Example 2), judged from mortality: 8 days after inoculation; for Insecticidal effect, Test Example 2: cabbage leaf immersed; for Insecticidal effect, Test Example 2 / Insecticidal effect on common cutworm (Test Example 2), judged grade: eight days after inoculation; for Insecticidal effect on common cutworm (Test Example 2), judged grade: second-instar larvae
Summary of the method: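 Air-dried treated material was placed in a closed dish with second-instar larvae and held at 25° C. Dead and live insects were counted eight days after inoculation, and mortality was calculated and scored against a fixed insecticidal-effect criterion. Three replicate groups of 10 insects were used.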

[4] = third-instar larvae of rice leafroller
[5] = second-instar larvae of common cutworm
[6] = rice leafroller third-instar larvae
[7] = mortality judged by criterion of Test Example 1
[8] = common cutworm second-instar larvae
[9] = judged by the mortality criterion of Test Example 1

SMILES	Insecticidal effect, Test Example 3 [1, 6]	Insecticidal effect, Test Example 1 [2, 7]	Insecticidal effect, Test Example 2 [3, 8]	Insecticidal effect, Test Example 3 [1, 4]	Insecticidal effect, Test Example 1 [2, 9]	Insecticidal effect, Test Example 2 [3, 5]	other results
CC(C)(C)NC(=O)c1c(F)cccc1C(=O)Nc1ccc(C(F)(F)C(F)(F)C(F)(F)F)cc1F [compound 1509]							Insecticidal effect (Test Example 3), judged from mortality [1, 4]: A (100); Insecticidal effect (Test Example 1), judged from mortality [2]: A (100); Insecticidal effect (Test Example 2), judged from mortality [3, 5]: C (89-80)
CC(C)(C)NC(=O)c1c(Cl)cccc1C(=O)Nc1ccc2c(c1)OC(F)(F)C(F)(F)O2 [compound 1066]	A (100)	A (100)	C (89-80)				
Cc1cc(Br)ccc1NC(=O)c1cccc(Br)c1C(=O)NC(C)C [compound 272]				A (100)	A (100)	A (100)	
Cc1cc(OC(F)F)c(Cl)cc1NC(=O)c1c(I)cccc1C(=O)NC(C)C [compound 470]							Insecticidal effect on rice leafroller (Test Example 3), judged grade [1]: C (89-80); Insecticidal effect on diamondback moth (Test Example 1), judged grade [2]: A (100); Insecticidal effect on common cutworm (Test Example 2), judged grade [3]: C (89-80)
Cc1c(NC(=O)c2c(I)cccc2C(=O)NC(C)C)cccc1C(F)(F)F [compound 435]				A (100)	A (100)	B (99-90)	
Cc1cc(Oc2ccc(C(F)(F)F)cc2Cl)ccc1NC(=O)c1cccc(F)c1C(=O)NC(C)C [compound 521]							Insecticidal effect on rice leafroller (Test Example 3), judged grade [1]: A (100); Insecticidal effect on diamondback moth (Test Example 1), judged grade [2]: A (100); Insecticidal effect on common cutworm (Test Example 2), judged grade [3]: A (100)
Cc1cc(OC(F)(F)C(F)(Cl)Cl)ccc1NC(=O)c1cccc(Cl)c1C(=O)NC(C)C [compound 145]				A (100)	A (100)	A (100)	
Cc1cc(C(F)(F)C(F)(F)F)ccc1NC(=O)c1cc(I)ccc1C(=O)NC(C)C [compound 1203]	A (100)	A (100)	D (79-50)				
Cc1cc(OC(F)(F)C(F)Cl)ccc1NC(=O)c1ccccc1C(=O)NC(C)C (stereo not drawn) [compound 62]				A (100)	A (100)	A (100)	
Cc1cc(OCC(F)(F)C(F)F)ccc1NC(=O)c1c(Cl)cccc1C(=O)NC(C)C [compound 230]				A (100)	A (100)	C (89-80)	
CC(C)NC(=O)c1c(I)cccc1C(=O)Nc1ccc(F)cc1F [compound 1055]	A (100)	A (100)	A (100)				
Cc1cc(C(F)(F)F)ccc1NC(=O)c1cccc(Br)c1C(=O)NC(C)C [compound 277]				A (100)	A (100)	A (100)	
Cc1cc(OC(F)(F)C(F)C(F)(F)F)ccc1NC(=O)c1c(Cl)cccc1C(=O)NC(C)C (stereo not drawn) [compound 242]				A (100)	A (100)	B (99-90)	
Cc1cc(C(F)(F)C(F)(F)F)ccc1NC(=O)c1cccc(I)c1C(=O)NCC1CCCCC1 [compound 1028]	A (100)	A (100)	A (100)				
Cc1cc(C(F)(F)C(F)(F)F)ccc1NC(=O)c1cccc([S+]([O-])C(F)(F)F)c1C(=O)NC(C)C (stereo not drawn) [compound 1803]							Insecticidal effect (Test Example 3), judged from mortality [1, 4]: A (100); Insecticidal effect (Test Example 1), judged from mortality [2]: A (100); Insecticidal effect (Test Example 2), judged from mortality [3, 5]: A (100)
Cc1cc(C(F)(F)C(F)(F)F)ccc1NC(=O)c1cccc(C)c1C(=O)NC(C)C [compound 953]	A (100)	A (100)	A (100)				
CCN(CC)C(=O)c1c(I)cccc1C(=O)Nc1ccc(-c2ccc(Cl)cc2)cc1C [compound 1615]							Insecticidal effect (Test Example 3), judged from mortality [1, 4]: A (100); Insecticidal effect (Test Example 1), judged from mortality [2]: A (100); Insecticidal effect (Test Example 2), judged from mortality [3, 5]: A (100)
Cc1cc(C#N)ccc1NC(=O)c1cccc(I)c1C(=O)NC(C)C [compound 1389]	A (100)	A (100)	A (100)				
